Data taken from ChEMBL document CHEMBL5247627, “1-Methyl-3-((4-(quinolin-4-yloxy)phenyl)amino)-1H-pyrazole-4-carboxamide derivatives as new rearranged during Transfection (RET) kinase inhibitors capable of suppressing resistant mutants in solvent-front regions” (Eur J Med Chem, 2022).

Key:
BaF3 [1] = experiment: Antiproliferative activity against mouse BaF3 cells expressing wildtype rearranged during transfection kinase-CCDC6 incubated for 74 to 76 hrs by cell counting kit 8 method
[2] = target: Proto-oncogene tyrosine-protein kinase receptor Ret (Homo sapiens, UniProt P07949); experiment: Inhibition of wild type rearranged during transfection kinase (unknown origin) preincubated for 1 hr followed by addition of development agent incubated for 1 hr measured by FRET-based Z'-Lyte assay
Chain of Proto-oncogene tyrosine-protein kinase receptor Ret (P07949 whole entry): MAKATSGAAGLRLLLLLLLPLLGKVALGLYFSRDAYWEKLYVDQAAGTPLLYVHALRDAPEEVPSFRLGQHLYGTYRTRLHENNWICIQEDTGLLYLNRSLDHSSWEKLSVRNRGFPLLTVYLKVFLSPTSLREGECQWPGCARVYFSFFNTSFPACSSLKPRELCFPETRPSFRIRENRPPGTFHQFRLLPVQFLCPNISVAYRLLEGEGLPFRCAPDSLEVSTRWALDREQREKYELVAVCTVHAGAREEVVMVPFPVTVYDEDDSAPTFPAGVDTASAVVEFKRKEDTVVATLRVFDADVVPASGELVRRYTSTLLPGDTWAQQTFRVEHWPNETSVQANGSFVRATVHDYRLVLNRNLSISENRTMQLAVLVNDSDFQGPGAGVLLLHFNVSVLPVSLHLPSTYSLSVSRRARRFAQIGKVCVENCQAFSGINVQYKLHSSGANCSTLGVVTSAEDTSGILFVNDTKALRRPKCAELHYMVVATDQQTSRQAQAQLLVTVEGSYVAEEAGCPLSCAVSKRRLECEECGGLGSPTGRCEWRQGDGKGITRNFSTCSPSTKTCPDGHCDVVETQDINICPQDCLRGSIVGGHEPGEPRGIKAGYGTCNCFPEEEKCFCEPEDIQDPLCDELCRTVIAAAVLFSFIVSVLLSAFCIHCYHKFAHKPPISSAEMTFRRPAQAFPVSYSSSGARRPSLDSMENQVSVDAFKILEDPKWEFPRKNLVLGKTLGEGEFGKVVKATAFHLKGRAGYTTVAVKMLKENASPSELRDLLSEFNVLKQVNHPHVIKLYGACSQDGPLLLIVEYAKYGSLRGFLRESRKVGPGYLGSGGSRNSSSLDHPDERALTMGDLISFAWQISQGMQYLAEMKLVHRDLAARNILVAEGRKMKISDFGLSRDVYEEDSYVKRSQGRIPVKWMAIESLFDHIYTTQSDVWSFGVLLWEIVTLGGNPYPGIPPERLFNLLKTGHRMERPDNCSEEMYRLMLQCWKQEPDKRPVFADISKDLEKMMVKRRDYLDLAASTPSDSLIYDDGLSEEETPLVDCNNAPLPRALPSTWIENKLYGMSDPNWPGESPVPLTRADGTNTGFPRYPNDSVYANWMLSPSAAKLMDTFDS

BaF3 [3] = experiment: Antiproliferative activity against mouse BaF3 cells expressing rearranged during transfection kinase V804M-CCDC6 incubated for 74 to 76 hrs by cell counting kit 8 method
BaF3 [4] = experiment: Antiproliferative activity against mouse BaF3 cells expressing rearranged during transfection kinase G810C-CCDC6 incubated for 74 to 76 hrs by cell counting kit 8 method
BaF3 [5] = experiment: Antiproliferative activity against mouse BaF3 cells expressing rearranged during transfection kinase G810R-CCDC6 incubated for 74 to 76 hrs by cell counting kit 8 method
BaF3 [6] = experiment: Antiproliferative activity against mouse BaF3 cells incubated for 74 to 76 hrs by cell counting kit 8 method; format: functional, cell-based
BaF3 [7] = experiment: Antiproliferative activity against mouse BaF3 cells expressing wildtype rearranged during transfection kinase-KIF5B incubated for 74 to 76 hrs by cell counting kit 8 method
BaF3 [8] = experiment: Antiproliferative activity against mouse BaF3 cells expressing rearranged during transfection kinase V804M-KIF5B incubated for 74 to 76 hrs by cell counting kit 8 method
BaF3 [9] = experiment: Antiproliferative activity against mouse BaF3 cells expressing rearranged during transfection kinase V804L-KIF5B incubated for 74 to 76 hrs by cell counting kit 8 method
BaF3 [10] = experiment: Antiproliferative activity against mouse BaF3 cells expressing rearranged during transfection kinase V804L-G810C incubated for 74 to 76 hrs by cell counting kit 8 method
BaF3 [11] = experiment: Antiproliferative activity against mouse BaF3 cells expressing rearranged during transfection kinase V804L-G810S incubated for 74 to 76 hrs by cell counting kit 8 method
BaF3 [12] = experiment: Antiproliferative activity against mouse BaF3 cells expressing rearranged during transfection kinase V804L-G810R incubated for 74 to 76 hrs by cell counting kit 8 method

SMILES | IC50 (BaF3 [1]) | IC50 [2] | IC50 (BaF3 [3]) | IC50 (BaF3 [4]) | IC50 (BaF3 [5]) | IC50 (BaF3 [6]) | IC50 (BaF3 [7]) | IC50 (BaF3 [8]) | IC50 (BaF3 [9]) | IC50 (BaF3 [10]) | IC50 (BaF3 [11]) | IC50 (BaF3 [12])
COc1cc2nccc(Oc3ccc(Nc4nn(C)cc4C(=O)Nc4ccccc4F)cc3)c2cc1C(N)=O | > 10000 nM | > 10000 nM | 1860 nM | > 10000 nM | 1200 nM | 1710 nM |  |  |  |  |  | 
CO[C@]1(C(=O)N[C@@H](C)c2ccc(-n3cc(F)cn3)nc2)CC[C@H](c2nc(C)cc(Nc3cc(C)[nH]n3)n2)CC1 [PRALSETINIB] | 4.4 nM |  | 3.5 nM | > 261 nM | 575 nM | 1170 nM | 5.7 nM | 9.2 nM | 4.1 nM | 215 nM | 21.7 nM | 241 nM
COc1cc2nccc(Oc3ccc(Nc4nn(C)cc4C(=O)NC45CC6CC(CC(C6)C4)C5)cc3)c2cc1C(N)=O | 8.7 nM |  | 60.8 nM | 99.9 nM | 285 nM | > 10000 nM |  |  |  |  |  | 
CNC(=O)c1cc2c(Oc3ccc(Nc4nn(C)cc4C(=O)NC45CC6CC(CC(C6)C4)C5)cc3F)ccnc2cc1OC | 13.8 nM |  | 61.5 nM | 122 nM | 192 nM | > 10000 nM |  |  |  |  |  | 
COc1ccc(CN2C3CC2CN(c2ccc(-c4cc(OCC(C)(C)O)cn5ncc(C#N)c45)cn2)C3)cn1 [SELPERCATINIB] | 7.4 nM |  | 17.4 nM | 472 nM | 1100 nM | > 10000 nM | 10.6 nM | 72 nM | 37.8 nM | 1240 nM | 253 nM | 4340 nM
COc1cc2nccc(Oc3ccc(Nc4nn(C)cc4C(=O)NC45CCC(CC4)CC5)cc3)c2cc1C(N)=O | 13.9 nM |  | 161 nM | 329 nM | 263 nM | > 10000 nM |  |  |  |  |  | 
COc1cc2nccc(Oc3ccc(Nc4nn(C)cc4C(=O)NOCc4ccccc4)cc3)c2cc1C(N)=O | 410 nM |  | 732 nM | > 10000 nM | 4940 nM | > 10000 nM |  |  |  |  |  | 
COc1cc2nccc(Oc3ccc(Nc4nn(C)cc4C(=O)N4CCCC5CCCCC54)cc3)c2cc1C(N)=O (stereo unspecified) | 2980 nM | > 10000 nM | 903 nM | 3770 nM | 1700 nM | 4330 nM |  |  |  |  |  | 
COc1cc2nccc(Oc3ccc(Nc4nn(C)cc4C(=O)NCC4CCCO4)cc3)c2cc1C(N)=O (stereo unspecified) | 1160 nM |  | 6910 nM | 9510 nM | 9680 nM | > 10000 nM |  |  |  |  |  | 
COc1cc2nccc(Oc3ccc(Nc4nn(C)cc4C(=O)Nc4cccc(F)c4)cc3)c2cc1C(N)=O | 1560 nM | > 10000 nM | 3270 nM | 8520 nM | 3440 nM | 4480 nM |  |  |  |  |  | 
COc1cc2nccc(Oc3ccc(Nc4nn(C)cc4C(=O)NC45CC6CC(CC(C6)C4)C5)c(Cl)c3)c2cc1C(N)=O | 7.8 nM |  | 53.4 nM | 29.4 nM | 137 nM | > 10000 nM |  |  |  |  |  | 
COc1cc2nccc(Oc3ccc(Nc4nn(C)cc4C(=O)Nc4ccccc4)cc3)c2cc1C(N)=O | 2260 nM |  | 1720 nM | > 10000 nM | > 10000 nM | > 10000 nM |  |  |  |  |  | 
COc1cc2nccc(Oc3ccc(Nc4nn(C)cc4C(=O)NCC(C)C)cc3)c2cc1C(N)=O | 206 nM |  | 2080 nM | 2280 nM | 2050 nM | > 10000 nM |  |  |  |  |  | 
COc1cc2nccc(Oc3ccc(Nc4nn(C)cc4C(=O)NC4CCCCCCC4)cc3)c2cc1C(N)=O | 12.5 nM |  | 171 nM | 95.3 nM | 523 nM | 3210 nM |  |  |  |  |  | 
COc1cc2nccc(Oc3ccc(Nc4nn(C)cc4C(=O)NC45CC6CC(CC(C6)C4)C5)c(C)c3)c2cc1C(N)=O | 11.8 nM |  | 62.2 nM | 66.1 nM | 464 nM | > 10000 nM |  |  |  |  |  | 
Cn1cc(C(=O)NC23CC4CC(CC(C4)C2)C3)c(Nc2ccc(Oc3ccnc4cc(OCCCN5CCOCC5)c(C(N)=O)cc34)c(F)c2)n1 | 5.1 nM |  | 7 nM | 363 nM | 329 nM | 1360 nM |  |  |  |  |  | 
COc1cc2nccc(Oc3ccc(Nc4nn(C)cc4C(=O)NC45CC6CC(CC(C6)C4)C5)c(C#N)c3)c2cc1C(N)=O | 18.8 nM |  | 70.3 nM | 148 nM | 230 nM | 9770 nM |  |  |  |  |  | 
COc1cc2nccc(Oc3ccc(Nc4nn(C)cc4C(=O)NC4CCCC4)cc3)c2cc1C(N)=O | 153 nM |  | 1030 nM | 3610 nM | 7280 nM | > 10000 nM |  |  |  |  |  | 
COc1cc(Oc2ccnc3cc(OC)c(C(N)=O)cc23)ccc1Nc1nn(C)cc1C(=O)NC12CC3CC(CC(C3)C1)C2 | 21.6 nM |  | 141 nM | 349 nM | 591 nM |  |  |  |  |  |  | 
COc1cc2nccc(Oc3ccc(Nc4nn(C)cc4C(=O)NC45CC6CC(CC(C6)C4)C5)cc3F)c2cc1C(N)=O | 179 nM |  | 1360 nM | 1000 nM | 1640 nM | > 10000 nM |  |  |  |  |  | 
COc1cc2nccc(Oc3ccc(Nc4nn(C)cc4C(=O)NC45CC6CC(CC(C6)C4)C5)cc3F)c2cc1C#N | 142 nM |  | 1620 nM | 659 nM | 1290 nM | > 10000 nM |  |  |  |  |  | 
COc1cc2nccc(Oc3ccc(Nc4nn(C)cc4C(=O)NC4CCCCC4)cc3)c2cc1C(N)=O | 24 nM |  | 235 nM | 442 nM | 582 nM | 4800 nM |  |  |  |  |  | 
Cn1cc(C(=O)NC23CC4CC(CC(C4)C2)C3)c(Nc2ccc(Oc3ccnc4cc(OCCN5CCOCC5)c(C(N)=O)cc34)c(F)c2)n1 | 11.2 nM |  | 29.7 nM | 233 nM | 534 nM | > 10000 nM |  |  |  |  |  | 
COc1cc2nccc(Oc3ccc(Nc4nn(C)cc4C(=O)Nc4ccc(F)cc4)cc3)c2cc1C(N)=O | 2980 nM | > 10000 nM | 3020 nM | 5190 nM | 2900 nM | 3060 nM |  |  |  |  |  | 
COc1cc2nccc(Oc3ccc(Nc4nn(C)cc4C(=O)NCC4CCCCC4)cc3)c2cc1C(N)=O | 281 nM |  | 888 nM | 1260 nM | 3620 nM | > 10000 nM |  |  |  |  |  | 
COc1cc2nccc(Oc3ccc(Nc4nn(C)cc4C(=O)N4CCCCC4)cc3)c2cc1C(N)=O | 3060 nM | > 10000 nM | 3780 nM | 5760 nM | 3520 nM | 5650 nM |  |  |  |  |  | 
COc1cc2nccc(Oc3ccc(Nc4nn(C)cc4C(=O)NCc4ccccc4)cc3)c2cc1C(N)=O | 2180 nM |  | 1120 nM | 8540 nM | 9080 nM | > 10000 nM |  |  |  |  |  | 
